Laboratory results taken from patent US20240041042A1, “1-(PYRIDYL)-5-AZINYLPYRAZOLE DERIVATIVES, AND THEIR USE FOR CONTROL OF UNDESIRED PLANT GROWTH” (Bayer Aktiengesellschaft, priority 2020, published 2024).
Where two headings read alike, the source gives them in different places.

Columns and labels:
Format in all cases: in vivo
[1] = tested on: Zea mays (ZEAMX); settings: pre-emergence, 80 g/ha, crop plant compatibility, in comparison to untreated controls
Source text: Seeds of monocotyledonous and dicotyledonous weed plants and crop plants are placed in plastic or organic planting pots and covered with soil. The compounds of the invention, formulated in the form of wettable powders (WP) or as emulsion concentrates (EC), are then applied to the surface of the covering soil as aqueous suspension or emulsion with addition of 0.5% additive at a water application rate equivalent to 600 l/ha. After the treatment, the pots are placed in a greenhouse and kept under good growth conditions for the trial plants. After about 3 weeks, the effect of the preparations is scored visually in comparison with untreated controls as percentages. For example, 100% activity=the plants have died, 0% activity=like control plants.
The observed effects on selected crop plants are reported here in comparison to the untreated controls (values in %). The appendices “a” “b” and “c” give differentiation by dosage used with otherwise the same crop plants tested.

[2] = tested on: Alopecurus myosuroides (ALOMY); assay: Pre-emergence herbicidal action against ALOMY; settings: scored visually after about 3 weeks, 100% = plants have died
Summary of the method: (§1)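 Seeds sown in pots and covered with soil; WP or EC formulations sprayed onto the soil surface at 600 l/ha water with 0.5% additive, at 320 g/ha or lower. Greenhouse growth for about 3 weeks, then visual scoring as % effect against untreated controls (100% = plants dead).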

[3] = tested on: Amaranthus retroflexus (AMARE); assay: Post-emergence herbicidal action against AMARE
Summary of the method: (§2)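 Doses of 320 g/ha or lower, suffixes a, b and c marking different dosages, were applied post-emergence at the one-leaf stage in 600 l/ha water with 0.5% additive. Damage was assessed visually after about 3 weeks in the greenhouse.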

[4] = tested on: Echinochloa crus-galli (ECHCG); assay: Pre-emergence herbicidal action against ECHCG; settings: dosage 320 g/ha
Summary of the method: as §1

[5] = tested on: Viola tricolor (VIOTR); assay: Post-emergence herbicidal action against VIOTR
Summary of the method: as §2

[6] = tested on: Amaranthus retroflexus (AMARE); assay: Pre-emergence herbicidal action against AMARE; settings: visual scoring after about 3 weeks vs untreated controls
Summary of the method: as §1

[7] = tested on: Alopecurus myosuroides (ALOMY); assay: Post-emergence herbicidal action against ALOMY; settings: visual rating about 3 weeks after treatment vs untreated controls (100% = plants have died, 0% = like control plants)
Summary of the method: as §2

[8] = tested on: Lolium rigidum (LOLRI); assay: Pre-emergence herbicidal action against LOLRI
Summary of the method: as §1

[9] = tested on: Verconica persica (VERPE); assay: Pre-emergence herbicidal action against VERPE
Summary of the method: as §1

[10] = tested on: Viola tricolor (VIOTR); assay: Pre-emergence herbicidal action against VIOTR
Summary of the method: as §1

[11] = tested on: Setaria viridis (SETVI); assay: Post-emergence herbicidal action against SETVI
Summary of the method: as §2

[12] = tested on: Abutilon theophrasti (ABUTH); assay: Post-emergence herbicidal action against ABUTH; settings: 320 g/ha, visual rating about 3 weeks after treatment vs untreated controls (100% = plants have died, 0% = like control plants)
Summary of the method: as §2

[13] = tested on: Oryza sativa (ORYSA); settings: crop plant compatibility
Summary of the method: (§3)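 Effects were read visually as % versus untreated controls (0% = no effect, 100% = death) about 3 weeks post-treatment. Application was a post-emergence spray at the one-leaf stage of WP/EC formulations with 0.5% additive at 600 l/ha. Different dosages are denoted a, b and c.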

[14] = tested on: Setaria viridis (SETVI); assay: Pre-emergence herbicidal action against SETVI
Summary of the method: as §1

[15] = tested on: Avena fatua (AVEFA); assay: Post-emergence herbicidal action against AVEFA; settings: visual rating about 3 weeks after treatment
Summary of the method: as §2

[16] = tested on: Matricaria inodora (MATIN); assay: Pre-emergence herbicidal action against MATIN; settings: dosage 320 g/ha
Summary of the method: as §1

[17] = tested on: Lolium rigidum (LOLRI); assay: Post-emergence herbicidal action against LOLRI
Summary of the method: as §2

[18] = tested on: Echinochloa crus-galli (ECHCG); assay: Post-emergence herbicidal action against ECHCG
Summary of the method: as §2

[19] = tested on: Verconica persica (VERPE); assay: Post-emergence herbicidal action against VERPE
Summary of the method: as §2

[20] = tested on: Avena fatua (AVEFA); assay: Pre-emergence herbicidal action against AVEFA; settings: 320 g/ha, visual scoring after about 3 weeks vs untreated controls
Summary of the method: as §1

[21] = tested on: Polygonum convolvulus (POLCO); assay: Post-emergence herbicidal action against POLCO
Summary of the method: as §2

[22] = tested on: Polygonum convolvulus (POLCO); assay: Pre-emergence herbicidal action against POLCO
Summary of the method: as §1

[23] = tested on: Pharbitis purpurea (PHBPU); assay: Post-emergence herbicidal action against PHBPU; settings: dosage 320 g/ha
Summary of the method: as §2

[24] = tested on: Zea mays (ZEAMX)
Summary of the method: as §3

[25] = tested on: Pharbitis purpurea (PHBPU); assay: Pre-emergence herbicidal action against PHBPU; settings: dosage 320 g/ha
Summary of the method: as §1

[26] = tested on: Matricaria inodora (MATIN); assay: Post-emergence herbicidal action against MATIN; settings: dosage 320 g/ha
Summary of the method: as §2

[27] = 80 g/ha, visual rating about 3 weeks after treatment vs untreated controls (100% = plants have died, 0% = like control plants)
[28] = 320 g/ha, visual rating about 3 weeks after treatment
[29] = 80 g/ha, effect in comparison to untreated controls

| Pre-emergence action against ZEAMX in % [1] | Post-emergence action against ORYSA in % [13, 29] | SMILES | Pre-emergence action against ALOMY ([2]; 320 g/ha) | Post-emergence action against AMARE in % [3, 27] | Post-emergence action against AMARE in % [3, 28] | Pre-emergence action against ECHCG in % [4] | Post-emergence action against VIOTR in % ([5]; 80 g/ha) | Post-emergence action against VIOTR in % ([5]; 320 g/ha) | Pre-emergence action against AMARE in % ([6]; 320 g/ha) | Pre-emergence action against LOLRI in % ([8]; dosage 320 g/ha) | Pre-emergence action against VERPE in % ([9]; dosage 320 g/ha) | Pre-emergence action against VIOTR in % ([10]; 320 g/ha, Viola tricolor) | Pre-emergence action against VIOTR in % ([10]; dosage 80 g/ha) | Post-emergence action against SETVI in % ([11]; dosage 320 g/ha) | Pre-emergence action against SETVI in % ([14]; dosage 320 g/ha) | Pre-emergence action against MATIN in % [16] | Post-emergence action against ECHCG in % ([18]; dosage 80 g/ha) | Post-emergence action against ECHCG in % ([18]; dosage 320 g/ha) | Post-emergence action against VERPE in % ([19]; dosage 80 g/ha) | Pre-emergence action against POLCO in % ([22]; dosage 320 g/ha) | also measured |
| --- | --- | --- | --- | --- | --- | --- | --- | --- | --- | --- | --- | --- | --- | --- | --- | --- | --- | --- | --- | --- | --- |
| 20% | 0% | CCOC(=O)[C@@H](C)Oc1nn(-c2ncccc2Cl)c(-c2ccc(F)nc2)c1Br [Example I-27] | 100% | 90% | 90% | 100% | 80% | 80% | 100% | 100% | 100% | 100% | 100% | 90% | 100% | 80% | 90% | 90% | 80% | 100% | Pre-emergence action against AMARE in % ([6]; 80 g/ha): 90%; Post-emergence action against ALOMY in % ([7]; 80 g/ha): 80%; Post-emergence action against ALOMY in % ([7]; 320 g/ha): 100%; Pre-emergence action against LOLRI in % ([8]; dosage 80 g/ha): 100%; Pre-emergence action against VERPE in % ([9]; dosage 80 g/ha): 80%; Post-emergence action against ABUTH in % [12]: 90%; Post-emergence action against AVEFA in % ([15]; 80 g/ha): 100%; Post-emergence action against AVEFA in % ([15]; 320 g/ha): 100%; Post-emergence action against LOLRI in % ([17]; dosage 80 g/ha): 90%; Post-emergence action against LOLRI in % ([17]; dosage 320 g/ha): 90%; Post-emergence action against VERPE in % ([19]; 320 g/ha, VERPE): 90%; Pre-emergence action against AVEFA in % [20]: 100%; Post-emergence action against POLCO in % ([21]; dosage 80 g/ha): 80%; Post-emergence action against POLCO in % ([21]; dosage 320 g/ha): 80%; Pre-emergence action against POLCO in % ([22]; dosage 80 g/ha): 90% |
| 10% | 10% | COCCOC(=O)COc1nn(-c2ncccc2C(F)(F)F)c(-c2cncc(F)c2)c1Br [Example I-157] | 80% |  |  | 80% |  |  |  |  | 90% | 100% | 80% | 80% |  |  | 80% | 90% | 80% | 90% | Post-emergence action against PHBPU in % [23]: 80%; Post-emergence action against ABUTH in % [12]: 80%; Post-emergence action against ZEAMX in % ([24]; crop plant compatibility, 80 g/ha, effect vs untreated controls): 20%; Post-emergence action against VERPE in % ([19]; 320 g/ha, VERPE): 90%; Pre-emergence action against PHBPU in % [25]: 90% |
| 0% | 0% | O=C(O)CSc1nn(-c2ccccn2)c(-c2cncc(F)c2)c1I [Example I-229] |  | 80% | 80% | 90% | 80% | 80% | 80% | 80% |  | 90% |  | 80% | 90% | 80% | 80% | 80% |  | 90% | Post-emergence action against PHBPU in % [23]: 80%; Post-emergence action against SETVI in % ([11]; dosage 80 g/ha): 80%; Post-emergence action against MATIN in % [26]: 80%; Post-emergence action against POLCO in % ([21]; dosage 320 g/ha): 80% |
| 20% |  | CC(C)N(C)S(=O)(=O)NC(=O)COc1nn(-c2ncccc2F)c(-c2ccc(F)nc2)c1Br [Example I-53] | 100% | 90% |  | 80% |  |  | 100% | 100% | 100% | 100% | 90% |  | 100% | 90% | 80% |  | 80% | 90% | Pre-emergence action against ALOMY ([2]; 80 g/ha): 80%; Pre-emergence action against AMARE in % ([6]; 80 g/ha): 90%; Post-emergence action against ALOMY in % ([7]; 80 g/ha): 90%; Post-emergence action against SETVI in % ([11]; dosage 80 g/ha): 80%; Post-emergence action against ZEAMX in % (crop plant compatibility) ([24]; 20 g/ha, ZEAMX, effect in comparison to untreated controls): 10%; Post-emergence action against ORYSA in % ([13]; 20 g/ha, effect vs untreated controls): 10%; Pre-emergence action against SETVI in % ([14]; dosage 80 g/ha): 90%; Pre-emergence action against AVEFA in % [20]: 100% |
